Measured values as given in the METLIN SMRT retention time set (Domingo-Almenara et al. 2019).

Assay: gradient 5% acetonitrile 3 min, to 50% in 2 min, to 85% in 15 min, held 3 min, 100 µL/min
Details: column: Zorbax Extend-C18 2.1 x 50 mm; eluents: water / acetonitrile, 0.1% formic acid
Outline: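 Over 3 months, pure standards in mixtures of ~100 molecules were run by HPLC coupled to a quadrupole time-of-flight mass spectrometer in positive and negative ionization mode. The column was a Zorbax Extend-C18 (2.1 × 50 mm, 1.8 μm) at 100 μL/min, eluted with water and acetonitrile each holding 0.1% formic acid, with 40 μL dead and 900 μL dwell volumes. Retention time was determined from adduct peaks chosen by software and checked manually.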

Row | Structure (SMILES) | RP-LC retention time [s]
1 | O=C(NCc1cccc(F)c1)C1CCCN(c2nnc3ccc(Cl)cn23)C1 (stereo unspecified) | 645
2 | COc1ccccc1NC(=O)N1CCC2(CC1)NC(=O)c1ccc(Cl)cc1N2 | 775
3 | CN(C)c1ncnc2c1ncn2-c1ccccc1 | 714
4 | Cc1cc(S(=O)(=O)N(C)C2CCc3nn(CC4CC4)c(=O)n3CC2)ccc1Cl (stereo unspecified) | 827
5 | O=C(C1CC(=O)N(c2ccccc2)C1)N1CCC2(CC1)OCCS2 (stereo unspecified) | 682
6 | COc1ccc(OCC2CN(C(=O)Cc3ccc(OC)c(OC)c3OC)CCO2)cc1 (stereo unspecified) | 794
7 | Cc1ccc(-c2nc(CN3CCCC(C(=O)NC4CCCCNC4=O)C3)no2)cc1 (stereo unspecified) | 638
8 | COCCn1cc(CCNC(=O)Nc2ccccc2Cl)c2cccnc21 | 752
9 | O=C(Nc1ccccc1Cl)C1CCCN(c2ncnc3c2nc2n3CCCCC2)C1 (stereo unspecified) | 851
10 | O=C(c1ccccc1)C(c1ccccc1)C1(O)C(=O)Nc2c(Cl)cc(Cl)cc21 (stereo unspecified) | 949
11 | COC(=O)C1=CN(CC(=O)N2CCN(c3ccc(F)cc3)CC2)S(=O)(=O)N=C1C | 878
12 | COc1ccc(Cl)cc1NC(=O)Cn1cccc(-c2nc(-c3ccc(OC)c(OC)c3)no2)c1=O | 887
13 | CCc1csc(-c2ccc(N3CCN(C(=O)c4ccc(F)c(F)c4)CC3)nc2)n1 | 955
14 | CC(C)n1cnc(S(=O)(=O)N2CCC(C(=O)NCc3ccc(Cl)cc3)CC2)c1 | 749
15 | CCOc1cc(=O)n2c(c1C(=O)Nc1ccc3c(c1)CCC3)CCCC2 | 815
16 | Cc1ccsc1C(=O)N1CC(Oc2ccc(-c3nc(-c4ccccc4)no3)cc2)C1 | 1250
17 | CC1CCCN(Cc2nc(-c3ccc(N4CCSCC4)nc3)no2)C1 (stereo unspecified) | 856
18 | O=C(NCc1ccsc1)C(=O)Nc1ccon1 | 665
19 | CCCCS(=O)(=O)NCC#CCN1CCc2ccccc2C1 | 564
20 | O=C(NCCc1csc(-c2ccccc2)n1)[C@H]1CCCN1C(=O)c1ccc(F)cc1 | 812
21 | Cc1ccc(NC(=O)N2CCC(c3nc(C(=O)N4CCCC4)c(C)o3)CC2)cc1C | 829
22 | Cc1cc(N2CCN(C)CC2)nc2ccc(NC(=S)NCCC(C)C)cc12 | 572

Row | Structure (SMILES) | RP-LC retention time [s]
23 | Cc1noc(C2CN(C(=O)Nc3ccc4c(c3)CCC4)CC23CCOCC3)n1 (stereo unspecified) | 777
24 | CCOc1ccc(NS(=O)(=O)c2cc(C(=O)N3CCN(c4ccccc4)CC3)n[nH]2)cc1 | 883
25 | CCC(C)NC(=O)Cn1cccc(-c2nc(-c3ccc(C)cc3)no2)c1=O (stereo unspecified) | 814
26 | Cc1ccc(-c2ccc(N3CCCC(C(=O)Nc4ccc5c(c4)OCO5)C3)nn2)cc1 (stereo unspecified) | 753
27 | CCOc1ccc(CNC(=S)Nc2ccc3nc(N4CCN(C)CC4)cc(C)c3c2)cc1 | 614
28 | COc1ccc(C2C(=O)N(C3CCC(C)CC3)CC(=O)N2Cc2ccco2)cc1OC (stereo unspecified) | 883
29 | COCc1c(C(=O)O)nnn1Cc1ccccc1C | 714
30 | CCOC(=O)c1c(C)[nH]c(C(=O)N2CCCC(C(=O)NCc3cccc(C)c3)C2)c1C (stereo unspecified) | 863
31 | Cc1nn(CC(=O)NCCN2CCCCCC2)c(=O)c2nc(-c3ccccc3)sc12 | 657
32 | Cc1ccc(S(=O)(=O)NCCc2nnc3ccc(NCCCOC(C)C)nn23)cc1 | 657
33 | Cc1cc(N2CCN(C(=O)c3cccc(N(C)C)c3)CC2)nc2nncn12 | 1010
34 | CCCCN(CC)C(=O)C1CCCN(c2nccc(C)n2)C1 (stereo unspecified) | 752
35 | COc1ccc(-c2nc(-c3ccc4c(c3)nc(C)c(=O)n4C(C)C)no2)cc1 | 1160
36 | CCCNC(C)C(=O)Nc1c(C)csc1C(=O)OC (stereo unspecified) | 652
37 | Cc1cccc(NC(=O)Cn2cnc3nc(N4CCC(C(=O)NC5CC5)CC4)sc3c2=O)c1C | 693
38 | Cc1ccc2c(c1)N(Cc1cccc(F)c1)N=C(C(=O)N1CCCC1)S2(=O)=O | 876
39 | O=C(Cn1c(CO)nc2ccccc21)N1CCCC1 | 565
40 | COc1ccc(Nc2ncccc2S(N)(=O)=O)cc1 | 712
41 | O=C(NCc1nc(-c2ccc3c(c2)Sc2ccccc2C(=O)N3C2CC2)no1)c1ccco1 | 861
42 | Fc1ccccc1-c1noc(-c2nc(-c3cnccn3)no2)n1 | 877
43 | CCCN1C(=O)COc2cc(-c3noc(C(=O)N4CCN(c5ccc(Cl)cc5)CC4)n3)ccc21 | 1190
44 | CCn1nccc1C(=O)N1CCCC1c1ccc(F)cc1 (stereo unspecified) | 785

Row | Structure (SMILES) | RP-LC retention time [s]
45 | COc1ccc(CNC(=O)C2CCN(S(=O)(=O)c3ccc4c(c3)NC(=O)C(C)O4)CC2)cc1 (stereo unspecified) | 788
46 | CCOCCCNC(=O)C1CCCN(c2ncc(-c3ccc(F)cc3)cn2)C1 (stereo unspecified) | 886
47 | CCOc1cn(-c2ccc(F)cc2)nc1C(=O)NCc1cccs1 | 873
48 | Cc1nc(Cn2cccc2C(=O)Nc2ccc(Cl)cc2)no1 | 899
49 | COc1ccc(NC(=O)N2CCc3nc(-c4ccc(F)cc4)ncc3C2)cc1 | 906
50 | CC(C)NC(=O)N1CCCN(S(=O)(=O)C(C)C)CC1 | 649
51 | COc1ccc(C2CCN(C(=O)c3ccoc3)CC2)cc1 | 853
52 | Cc1ccc(C)c(NC(=O)Cn2ncc3c(c2=O)N(CC2CC2)C(=O)CS3)c1 | 812
53 | O=C(C1=CN(c2ccc3c(c2)OCO3)c2cc(F)ccc2S1(=O)=O)N1CCCC1 | 796
54 | Cc1ccc2[nH]cc(CCNC(=O)CCn3c(=O)c(C)nc4ccccc43)c2c1 | 781
55 | CCN(CCCNC(=O)c1nnc(-c2ccc(S(=O)(=O)N3CCCC3)cc2)o1)c1ccccc1 | 714
56 | CCOc1ccc(-c2nc(Cc3noc(-c4cccnc4)n3)c(C)o2)cc1 | 967
57 | Cc1sc(-c2cc(C(F)(F)F)on2)cc1S(=O)(=O)N1CCN(c2ccc(Cl)cc2)CC1 | 1400
58 | Cc1ccc(-n2c(=O)n(C)c(=O)c3cc(C(=O)Nc4ccc5c(c4)OCO5)cnc32)cc1 | 907
59 | CCCC1c2nccn2CCCN1C(=O)c1occc1C (stereo unspecified) | 611
60 | CN[C@@H](C)C(=O)N[C@H]1CN(C(=O)CC(C)C)CC[C@H]2CC[C@@H](C(=O)NC(c3ccccc3)c3ccccc3)N2C1=O | 757
61 | CCOC(=O)C1=C(C)NC2=C(C(=O)C(C(=O)OC)C(C)C2)C1c1ccccc1OCC (stereo unspecified) | 906
62 | Cc1ccc(-c2cn3c(CC(=O)Nc4cccc(C#N)c4)csc3n2)cc1C | 855
63 | CCc1ccc(NC(=O)Cn2c(-c3cnccn3)nc(C)c(C)c2=O)cc1 | 792
64 | O=C(Nc1cccc(Cl)c1)Nc1nc(CC(=O)N2CCc3ccccc32)cs1 | 978
65 | CCOC(=O)c1noc2nc(C)nc(N3CCN(c4cccc(Cl)c4)CC3)c12 | 1220
66 | O=C(c1nnc(-c2ccc(S(=O)(=O)N3CCCCC3)cc2)o1)N1CCCCCC1 | 1010
